Data taken from patent US8835629B2, “Anti-cancer agents” (The Walter and Eliza Hall Institute of Medical Research, priority 2010, dated 2014).
Entries after “also recorded” stand apart in the source; their conditions may differ.

Key:
MDA-MB-231 = test: MTT cell proliferation assay, MDA-MB-231; assay type: cell-based; conditions: 72 h; MDA-MB-231 human breast carcinoma; MTT after 3 days of incubation; read-out: IC50, inhibition of proliferation
Experimental: (§1) Compound 2 was tested on a series of cell lines to determine its activity and selectivity (Table 2). Cell proliferation was measured using the MTT assay (for protocol see Example 2.6) after 3 days of incubation with the inhibitor.
(§2) • Cells plated at […] in 100 μl medium+5% FCS (+Adds^1): • Cells incubated overnight: • Titrate inhibitors in a fresh plate in 150 μl medium • Transfer 100 μl titrated compounds to matching wells of the cell plate. • Incubate a further 4 days: • Add 10 μl MTS^2 or MTT^3 for 1.5 to 2 hours and read on Multiscanner (wavelengths 492/690) ^1 Additives for culture of LIM cell lines: 10 μM thioglycerol, 0.025 U/ml insulin, 1 μg/ml hydrocortisone. ^2 3-(4,5-dimethylthiazol-2-yl)-5-(3-carboxymethoxyphenyl)-2-(4-sulfophenyl)-2H-tetrazolium. ^3 3-(4,5-Dimethylthiazol-2-yl)-2,5-diphenyltetrazolium bromide
(§3) Cells are trypsinized and washed ×2 in medium+5% FCS and plate out at 10^4 cells per well in 100 μl.
(§4) Incubate plates o/n 37° C.+5%-10% CO2 incubator.
(§5) Inhibitors are dissolved in DMSO to make 10 mM stocks and titrated in a 96 well plate in duplicate to use as the stock for the test plate. […]
(§6) Read OD of plates on Thermo Multiskan Ex, at 560/690 nm.

MCF-7 = test: Antimitotic effects (G2/M cell cycle block, DNA staining, ModFit) on MCF-7; assay type: cell-based, human
Description: (§7) For the initial studies two colon carcinoma cell lines (LIM1215 and SW480) and two breast cancer cell lines (MDA-MB-231 and MCF-7) were used. Taxol was used as comparator in these experiments (Table 1).

LIM 1215 = test: MTT cell proliferation assay, LIM 1215; assay type: cell-based; conditions: LIM1215, 72 h; LIM 1215 human colorectal carcinoma; MTT after 3 days of incubation; read-out: IC50, inhibition of proliferation
Experimental: as §1, §2, §3, §4, §5, §6

[1] = Dose escalation in mice (tolerability and toxicity); assay type: in vivo
Experimental: Compound 1 was initially tested for tolerability and toxicity in mice. C57Bl/6 mice (aged 8-12 weeks) were injected subcutaneously with escalating doses of Compound 1 in a constant volume of DMSO. Mice were sacrificed 24 hrs post-injection. There were no adverse effects of doses up to 80 mg/kg within this time-frame. Thus the compound is well tolerated at doses that far exceed the IC50 observed “in vitro”.
These minor skin lesions healed readily within 2-3 days.

[2] = tested on: LIM 2537 (colon carcinoma cell line) tumors; test: Tumor xenograft study with LIM 2537 cells; assay type: in vivo, BALB/c nude mice; conditions: 15 mg/kg SC
Experimental: FIG. 7: LIM2537 tumor growth in nude mice. Tumor diameters were measured with external calipers every three days and tumor volume calculated with the formula: π/6×(L×W^2).
The mice were inoculated with 3×10^6 cells per tumor in 100 μl PBS, one tumor on each flank subcutaneously (SC). Treatments were started on the third day after inoculation with either vehicle control (VC) or 100 μl of drug at 3 mg/ml in aqueous solution giving a dose of 15 mg/kg. Mice were injected SC in the abdomen, three times per week for the duration of the experiment. The mice were monitored for body weight, tumor volume and appearance, and for any adverse reactions to the drug. The experiment was terminated after 33 days and the control group euthanized, as the tumor burden in that group had reached the maximum allowed. The remaining mice were then left without treatment for a further 9 days to monitor resumption of tumor growth.

LIM 2405 = test: MTT cell proliferation assay, LIM 2405; assay type: cell-based; conditions: 72 h; LIM 2405 human colorectal carcinoma; MTT after 3 days of incubation; read-out: IC50, inhibition of proliferation
Experimental: as §1, §2, §3, §4, §5, §6

BaF/3 = test: MTT cell proliferation assay, BaF/3; assay type: cell-based; conditions: Mus musculus, BaF3, 72 h; BaF/3 murine B-cell progenitor line; MTT after 3 days of incubation; read-out: IC50, inhibition of proliferation
Experimental: as §1, §2, §3, §4, §5, §6

[3] = tested on: U87MG(Δ2-7) (brain cancer cell line) tumours; test: Tumor xenograft study with U87MG(Δ2-7); assay type: in vivo, Balb/c nu/nu mice
Experimental: FIG. 8: U87MG(Δ2-7) tumor growth in nude mice. Tumor diameters were measured with external callipers every three days and tumor volume calculated with the formula: π/6×(L×W2).
Mice: Balb/c nu/nu male; 8 controls and 8 treated.
Cells inoculated: U87MG(Δ2-7) at 2.13×10^6 cells/tumour; two tumours per mouse.
Dose: Compound 2 at 20 mg/kg=100 μl of 4 mg/ml in water for injection per 20 g mouse. Control mice were injected with 100 μl water for injection.
Treatment and monitoring: Treatment commenced at Day 5 after inoculation. Mice were injected SC in abdomen three times per week (Mon, Wed, Fri), on alternating sides. Mice were weighed, tumour diameters measured in two dimensions and the health of the mice was monitored.
After mice were sacrificed: the tumours were dissected and weighed; spleens and livers were also weighed.

LIM 2537 = test: MTT cell proliferation assay, LIM 2537; assay type: cell-based; conditions: 72 h; LIM 2537 human colorectal carcinoma; MTT after 3 days of incubation; read-out: IC50, inhibition of proliferation
Experimental: as §1, §2, §3, §4, §5, §6

SW480 = test: Antimitotic effects (G2/M cell cycle block, DNA staining, ModFit) on SW480; assay type: cell-based, human
Description: as §7

[4] = 20 mg/kg SC three times per week, post mortem

SMILES: COc1ccc(CNc2nc(NCc3ccc(CN)cc3)nc(NN3CC(=O)NC3=O)n2)cc1 (single isomer, unassigned) [Compound 2, 1-[4-(4-aminomethyl-benzylamino)-6-(4-methoxybenzylamino)-{1,3,5}-triazin-2-yl-amino]-imidazolidine-2,4-dione]
- IC50 (MDA-MB-231): 10 nM
- % of Taxol (proportion of cells in G2M test/proportion of cells in G2M Taxol) (MCF-7; 24 hrs, standard 1 μM Taxol): 102%
- IC50 (MCF-7; Homo sapiens, MCF7, inhibitors added to cells in log-growth for 24 hrs, read-out: IC50 for progression through the cell cycle): 9 nM
- IC50 (LIM 1215): 90 nM
- Time for healing of minor skin lesions ([1]; BALB/c nude, mouse, in vivo, 20 mg/kg): 2 to 3 days
- Effect at injection site ([1]; at 21.5 and 64.5 mg/kg): indications of skin thinning at the injection site in some mice
- Doses with no adverse effects in outward health or behaviour ([1]; mice, for 4 days): up to 64.5 mg/kg
- Skin effect in BALB/c nude mice ([1]; mouse, in vivo, 20 mg/kg): some skin lesions
- Tumor growth (tumor volume) ([2]; 3 injections per week from day 3, 33 days): significantly reduced the rate of growth of the tumors; also recorded: successful in slowing the growth of LIM 2537 cells
- Mouse body weights ([2]; three times per week): not affected
- Adverse reaction to the drug ([2]; three times per week, aqueous formulation): no long term adverse reaction
- IC50 (LIM 2405): 30 nM
- IC50 (BaF/3): 30 nM
- Tumour growth (tumour volume) ([3]; 20 mg/kg SC three times per week from day 5, terminated at 14 days): significant difference in volume between control and treated tumours; also recorded: reduced the growth of the tumours
- Liver or spleen weights vs vehicle control [3, 4]: no significant difference
- Tumor weight [3, 4]: greatly reduced
- IC50 (LIM 2537): 70 nM
- % of Taxol (proportion of cells in G2M test/proportion of cells in G2M Taxol) (SW480; 24 hrs, standard 1 μM Taxol): 113%
- IC50 (SW480; Homo sapiens, inhibitors added to cells in log-growth for 24 hrs, read-out: IC50 for progression through the cell cycle): 250 nM
